Results as given in patent publication US9765034B2, “5-halogenopyrazole biphenylcarboxamides” (BAYER CROPSCIENCE AG, priority 2012, dated 2017).

Columns and labels:
[1] = test system: Septoria tritici; assay: In vivo preventive test on Septoria tritici (leaf spot on wheat); conditions: wheat plants, preventive spray, 500 ppm, grading 24 days after contamination
Protocol: Example: In Vivo Preventive Test on Septoria tritici (Leaf Spot on Wheat) […] Wheat plants (“Scipion” variety), sown in starter cups on a 50/50 peat soil-pozzolana substrate and grown at 22° C., are treated at the 1-leaf stage (10 cm height) by spraying with the active ingredient prepared as described above. Plants, used as controls, are treated with the mixture of acetone/tween/DMSO/water not containing the active material. After 24 hours, the plants are contaminated by spraying the leaves with an aqueous suspension of cryopreserved Septoria tritici spores (500 000 spores per ml). […] Grading (% of efficacy) is carried out 24 days after the contamination, in comparison with the control plants. Under these conditions, good (at least 70%) or total protection is observed at a dose of 500 ppm with the following compounds: […]

[2] = test system: Sphaerotheca fuliginea; assay: In vivo preventive test on Sphaerotheca fuliginea (powdery mildew on cucurbits); conditions: gherkin plants, preventive spray, 500 ppm, grading 12 days after contamination
Protocol: Example: In Vivo Preventive Test on Sphaerotheca fuliginea (Powdery Mildew on Cucurbits) […] Gherkin plants (“Vert petit de Paris” variety), sown in starter cups on a 50/50 peat soil-pozzolana substrate and grown at 24° C., are treated at the Z11 cotyledon stage by spraying with the active ingredient prepared as described above. Plants, used as controls, are treated with the mixture of acetone/tween/DMSO/water not containing the active material. After 24 hours, the plants are contaminated by spraying the cotyledons with an aqueous suspension of Sphaerotheca fuliginea spores (100 000 spores per ml). The spores are collected from infected plants. […] Grading (% of efficacy) is carried out 12 days after the contamination, in comparison with the control plants. Under these conditions, good (at least 70%) or total protection is observed at a dose of 500 ppm with the following compounds: […]

[3] = test system: Puccinia recondita; assay: In vivo preventive test on Puccinia recondita (brown rust on wheat); conditions: wheat plants, preventive spray, 500 ppm, grading 12 days after contamination
Protocol: Example: In Vivo Preventive Test on Puccinia recondita (Brown Rust on Wheat) […] Wheat plants (“Scipion” variety), sown in starter cups on a 50/50 peat soil-pozzolana substrate and grown at 22° C., are treated at the 1-leaf stage (10 cm height) by spraying with the active ingredient prepared as described above. Plants, used as controls, are treated with the mixture of acetone/tween/DMSO/water not containing the active material. After 24 hours, the plants are contaminated by spraying the leaves with an aqueous suspension of Puccinia […] spores (100 000 spores per ml). […] Grading (% of efficacy) is carried out 12 days after the contamination, in comparison with the control plants. Under these conditions, good (at least 70%) or total protection is observed at a dose of 500 ppm with the following compounds: […]

[4] = logP by HPLC on reversed phase columns (EEC directive 79/831 Annex V.A8); conditions: method [a]: LC-MS at pH 2.7, 0.1% formic acid in water / acetonitrile gradient 10% to 95%
[5] = test system: Uromyces appendiculatus; assay: In vivo preventive test on Uromyces appendiculatus (bean rust); conditions: bean plants, preventive spray, 500 ppm, grading 11 days after contamination
Protocol: Example: In Vivo Preventive Test on Uromyces appendiculatus (Bean Rust) […] Bean plants (“Saxa” variety), sown in starter cups on a 50/50 peat soil-pozzolana substrate and grown at 24° C., are treated at the 2-leaf stage (9 cm height) by spraying with the active ingredient prepared as described above. Plants, used as controls, are treated with the mixture of acetone/tween/DMSO/water not containing the active material. After 24 hours, the plants are contaminated by spraying the leaves with an aqueous suspension of Uromyces appendiculatus spores (150 000 spores per ml). […] Grading (% of efficacy) is carried out 11 days after the contamination, in comparison with the control plants. Under these conditions, good (at least 70%) or total protection is observed at a dose of 500 ppm with the following compounds: […]

[6] = test system: Pyrenophora teres; assay: In vivo preventive test on Pyrenophora teres (net blotch on barley); conditions: barley plants, preventive spray, 500 ppm, grading 14 days after contamination
Protocol: Example: In Vivo Preventive Test on Pyrenophora teres (Net Blotch on Barley) […] Barley plants (“Plaisant” variety), sown in starter cups on a 50/50 peat soil-pozzolana substrate and grown at 22° C., are treated at the 1-leaf stage (10 cm height) by spraying with the active ingredient prepared as described above. Plants, used as controls, are treated with the mixture of acetone/tween/DMSO/water not containing the active material. After 24 hours, the plants are contaminated by spraying the leaves with an aqueous suspension of Pyrenophora teres spores (12 000 spores per ml). The spores are collected from a 12-day-old culture. […] Grading (% of efficacy) is carried out 14 days after the contamination, in comparison with the control plants. Under these conditions, good (at least 70%) or total protection is observed at a dose of 500 ppm with the following compounds: […]

[7] = test system: Alternaria brassicae; assay: In vivo preventive test on Alternaria brassicae (leaf spot on radish); conditions: radish plants, preventive spray, 500 ppm, grading 6 days after contamination
Protocol: Example: In Vivo Preventive Test on Alternaria brassicae (Leaf Spot on Radish) […] Radish plants (“Pernod Clair” variety), sown in starter cups on a 50/50 peat soil-pozzolana substrate and grown at 17° C., are treated at the cotyledon stage by spraying with the active ingredient prepared as described above. Plants, used as controls, are treated with the mixture of acetone/tween/DMSO/water not containing the active material. After 24 hours, the plants are contaminated by spraying the cotyledons with an aqueous suspension of Alternaria brassicae spores (50 000 spores per ml). The spores are collected from a 15-day-old culture. […] Grading (% of efficacy) is carried out 6 days after the contamination, in comparison with the control plants. Under these conditions, good (at least 70%) or total protection is observed at a dose of 500 ppm with the following compounds: […]

[8] = test system: Botrytis cinerea; assay: In vivo preventive test on Botrytis cinerea (grey mould); conditions: gherkin plants, preventive spray, 500 ppm, grading 4 to 5 days after contamination
Protocol: Example: In Vivo Preventive Test on Botrytis cinerea (Grey Mould) […] Gherkin plants (“Vert petit de Paris” variety), sown in starter cups on a 50/50 peat soil-pozzolana substrate and grown at 24° C., are treated at the Z11 cotyledon stage by spraying with the active ingredient prepared as described above. Plants, used as controls, are treated with the mixture of acetone/tween/DMSO/water not containing the active material. After 24 hours, the plants are contaminated by spraying the cotyledons with an aqueous suspension of cryopreserved Botrytis cinerea spores (50 000 spores per ml). The spores are suspended in a nutrient solution composed of 10 g/L of PDB, 50 g/L of D-Fructose, 2 g/L of NH4NO3 and 1 g/L of KH2PO4. […] Grading (% of efficacy) is carried out 4 to 5 days after the contamination, in comparison with the control plants. Under these conditions, good (at least 70%) or total protection is observed at a dose of 500 ppm with the following compounds: […]

Compound	Eff. % [1] [%]	Eff. % [2] [%]	Eff. % [3] [%]	logP [4]	Eff. % [5] [%]	Eff. % [6] [%]	Eff. % [7] [%]	Eff. % [8] [%]
CC(=NOC(C)C)c1ccc(-c2ccccc2NC(=O)c2c(C(F)F)nn(C)c2Cl)cc1 [Example 1]	75	100	98	5.03[a]	100	–	–	–
CCON=C(C)c1ccc(-c2ccccc2NC(=O)c2c(C(F)F)nn(C)c2Cl)cc1 [Example 2]	–	100	98	4.58[a]	100	–	–	–
CON=Cc1ccc(-c2ccccc2NC(=O)c2c(C(F)F)nn(C)c2Cl)c(Cl)c1 [Example 10]	–	100	97	4.05[a]	100	–	–	–
CCON=C(C)c1ccc(-c2ccccc2NC(=O)c2c(C(F)F)nn(C)c2F)cc1 [Example 11]	–	100	94	4.24[a]	100	96	97	–
CCON=Cc1c(F)cc(-c2ccccc2NC(=O)c2c(C(F)F)nn(C)c2Cl)cc1F [Example 14]	–	100	100	4.04[a]	100	100	100	70
CCON=C(C)c1ccc(-c2ccccc2NC(=O)c2c(C(F)F)nn(C)c2F)cc1 [Example 16]	–	–	94	4.29[a]	100	79	100	80
CCON=Cc1ccc(-c2ccccc2NC(=O)c2c(C(F)F)nn(C)c2Cl)cc1Cl [Example 17]	–	100	97	4.64[a]	100	96	98	–
CCON=Cc1ccc(-c2cc(F)ccc2NC(=O)c2c(C(F)F)nn(C)c2Cl)cc1 [Example 19]	–	100	97	4.11[a]	100	80	88	70
CON=Cc1c(F)cc(-c2ccccc2NC(=O)c2c(C(F)F)nn(C)c2Cl)cc1F [Example 23]	97	100	98	3.61[a]	100	97	97	–
CON=Cc1ccc(-c2ccccc2NC(=O)c2c(C(F)F)nn(C)c2Cl)cc1C(F)(F)F [Example 24]	92	100	100	4.25[a]	100	97	92	–
CCON=Cc1ccc(-c2ccccc2NC(=O)c2c(C(F)F)nn(C)c2Cl)cc1C(F)(F)F [Example 26]	–	100	97	4.65[a]	100	90	–	–
CON=Cc1ccc(-c2ccccc2NC(=O)c2c(C(F)F)nn(C)c2Cl)cc1F [Example 33]	–	100	100	3.75[a]	99	96	88	95
CCON=C(C)c1ccc(-c2ccccc2NC(=O)c2c(C(F)F)nn(C)c2Cl)cc1 [Example 34]	–	–	89	4.49[a]	100	80	–	–
C#CCON=C(C)c1ccc(-c2cccc(NC(=O)c3c(C(F)F)nn(C)c3Cl)c2)cc1 [Example 35]	75	–	–	4.01[a]	98	–	–	–
CCON=Cc1ccc(-c2ccccc2NC(=O)c2c(C(F)F)nn(C)c2Cl)c(Cl)c1 [Example 36]	–	100	97	4.49[a]	94	90	81	95
CCON=Cc1ccc(-c2ccccc2NC(=O)c2c(C(F)F)nn(C)c2Cl)c(F)c1 [Example 37]	–	100	97	3.65[a]	97	100	88	100
CON=Cc1ccc(-c2ccccc2NC(=O)c2c(C(F)F)nn(C)c2Cl)cc1Cl [Example 38]	–	100	97	4.19[a]	100	96	94	–
CON=C(C)c1cccc(-c2cccc(NC(=O)c3c(C(F)F)nn(C)c3F)c2)c1 [Example 42]	–	–	89	3.85[a]	97	70	–	–
CCON=C(C)c1cccc(-c2cccc(NC(=O)c3c(C(F)F)nn(C)c3Cl)c2)c1 [Example 43]	–	–	89	4.49[a]	100	80	–	–
CCON=C(C)c1cccc(-c2cccc(NC(=O)c3c(C(F)F)nn(C)c3F)c2)c1 [Example 44]	–	–	94	4.29[a]	100	79	100	80
CON=C(C)c1cccc(-c2cccc(NC(=O)c3c(C(F)F)nn(C)c3Cl)c2)c1 [Example 45]	–	–	94	4.04[a]	100	80	–	–
